These results are taken from patent US8399493B2, “Pyridinone derivatives and their use as positive allosteric modulators of mGluR2-receptors” (Janssen Pharmaceuticals, Inc., priority 2004, dated 2013).

Counter-ions that a name gives are not always drawn.

As a reminder, the melting point is the temperature, or range, at which the solid turns liquid. For `C[Si](C)(C)c1ccc(-c2ccc(=O)n(Cc3ccccc3)c2)cc1`, the melting point came to 132 °C.

On to `Cl.Nc1ccc(-c2ccc(=O)n(Cc3ccc(Cl)cc3F)c2)cc1`, for which the melting point is 266 °C.

For the molecule `COc1ccc(-c2ccc(=O)n(Cc3ccc(OC)nc3)c2)cc1` (as salt: HCl) [4-46], the melting point worked out at 126 °C.

For the molecule `Cc1ccc(-c2ccc(=O)n(Cc3ccccc3)c2)cc1` [1-03], the melting point was found to be 110 °C.

With `CCc1ccc(-c2ccc(=O)n(Cc3ccccc3)c2)cc1` [1-04], the melting point came out at 80 °C.

`CC(C)(C)c1ccc(-c2ccc(=O)n(Cc3ccccc3)c2)cc1` [1-05] displayed a melting point of 145 °C.

In the case of `Cc1ccc(-c2ccc(=O)n(Cc3ccccc3)c2)cc1C` [1-06], the melting point came out at 118 °C.

In turn, `O=c1ccc(-c2cc(F)cc(F)c2)cn1Cc1ccccc1` [1-09] came in with a melting point of 98 °C.

Molecule `O=c1ccc(-c2cccc(Cl)c2)cn1Cc1ccccc1` [1-10] came in with a melting point of 120 °C.

In turn, `O=c1ccc(-c2ccc(Cl)c(Cl)c2)cn1Cc1ccccc1` [1-12] yielded a melting point of 134 °C.

Regarding `O=c1ccc(-c2ccc(O)cc2)cn1Cc1ccccc1` [1-13], the melting point stood at 202 °C.

For `CCCOc1ccc(-c2ccc(=O)n(Cc3ccccc3)c2)cc1` [1-17], the melting point is 88 °C.

Molecule `CC(C)COc1ccc(-c2ccc(=O)n(Cc3ccccc3)c2)cc1` [1-18] returned a melting point of 110 °C.

`COc1ccc(-c2ccc(=O)n(Cc3ccccc3)c2)cc1OC` [1-19] had a melting point of 120 °C.

Regarding `O=c1ccc(-c2ccc(OC(F)(F)F)cc2)cn1Cc1ccccc1` [1-20], the melting point came out at 115 °C.

Consider `CC(=O)c1ccc(-c2ccc(=O)n(Cc3ccccc3)c2)cc1` [1-23], for which the melting point came out at 118 °C.

For `CCOC(=O)c1ccc(-c2ccc(=O)n(Cc3ccccc3)c2)cc1` [1-24], the melting point worked out at 115 °C.

Regarding `N#Cc1ccc(-c2ccc(=O)n(Cc3ccccc3)c2)cc1` [1-25], the melting point is 131 °C.

Turning to `CN(C)c1ccc(-c2ccc(=O)n(Cc3ccccc3)c2)cc1` [1-26], the melting point worked out at 153 °C.

As to `O=c1ccc(-c2cccc([N+](=O)[O-])c2)cn1Cc1ccccc1` [1-27], the melting point amounted to 149 °C.

For `COc1ccc(-c2ccc(=O)n(Cc3ccccc3)c2)cn1` [1-29], the melting point was 180 to 181 °C.

`O=c1ccc(-c2ccc3[nH]ccc3c2)cn1Cc1ccccc1` [1-30]: the melting point was 93 °C.

`O=c1ccc(-c2ccc3ccccc3c2)cn1Cc1ccccc1` [1-32] gave a melting point of 114 °C.

Turning to `O=c1ccc(C2CCCCC2)cn1Cc1ccc(Cl)cc1` [2-01, 1-(4-Chlorobenzyl)-5-cyclohexylpyridin-2(1H)-one], the melting point is 72 °C.

Molecule `Cc1ccc(-c2ccc(=O)n(Cc3ccc(Cl)cc3)c2)cc1` [2-03] gave a melting point of 126 to 128 °C.

With `CC(C)Cc1ccc(-c2ccc(=O)n(Cc3ccc(Cl)cc3)c2)cc1` [2-04], the melting point came out at 115 °C.

The molecule `CCC(C)c1ccc(-c2ccc(=O)n(Cc3ccc(Cl)cc3)c2)cc1` (stereo not shown) [2-05] displayed a melting point of 73 °C.

The molecule `C=Cc1ccc(-c2ccc(=O)n(Cc3ccc(Cl)cc3)c2)cc1` [2-06] displayed a melting point of 125 °C.

In the case of `Cc1ccc(-c2ccc(=O)n(Cc3ccc(Cl)cc3)c2)cc1F` [2-10], the melting point lay within 109 to 112 °C.

`COc1ccc(-c2ccc(=O)n(Cc3ccc(Cl)cc3)c2)c(F)c1` [2-11] displayed a melting point of 89 °C.

`O=c1ccc(-c2ccc(O)cc2)cn1Cc1ccc(Cl)cc1` [2-13] came in with a melting point of 202 °C.

Molecule `O=c1ccc(-c2ccc(CO)cc2)cn1Cc1ccc(Cl)cc1` [2-14] gave a melting point of 155 °C.

The molecule `CC(C)(O)c1ccc(-c2ccc(=O)n(Cc3ccc(Cl)cc3)c2)cc1` [2-15, 1-(4-Chlorobenzyl)-5-(4-(2-hydroxypropan-2-yl)phenyl)pyridin-2(1H)-one] yielded a melting point of 157 °C.

In the case of `O=c1ccc(-c2ccc(CCCO)cc2)cn1Cc1ccc(Cl)cc1` [2-16, 1-(4-Chlorobenzyl)-5-(4-(3-hydroxypropyl)phenyl)pyridin-2(1H)-one], the melting point came to 165 °C.

The molecule `CCOc1ccccc1-c1ccc(=O)n(Cc2ccc(Cl)cc2)c1` [2-20] had a melting point of 120 to 121 °C.

`CC(C)Oc1ccc(-c2ccc(=O)n(Cc3ccc(Cl)cc3)c2)cc1` [2-21] came in with a melting point of 118 °C.

As to `COCc1ccc(-c2ccc(=O)n(Cc3ccc(Cl)cc3)c2)cc1` [2-24], the melting point was 109 °C.

`CCOCc1ccc(-c2ccc(=O)n(Cc3ccc(Cl)cc3)c2)cc1` [2-25, 1-(4-Chlorobenzyl)-5-(4-(ethoxymethyl)phenyl)pyridin-2(1H)-one] showed a melting point of 109 °C.

For `CC(C)COCc1ccc(-c2ccc(=O)n(Cc3ccc(Cl)cc3)c2)cc1` [2-26], the melting point is 91 °C.

`O=c1ccc(-c2ccc(COCc3ccccc3)cc2)cn1Cc1ccc(Cl)cc1` [2-27]: the melting point amounted to 101 °C.

In turn, `COCCOCc1ccc(-c2ccc(=O)n(Cc3ccc(Cl)cc3)c2)cc1` [2-28] yielded a melting point of 79 °C.

`CC(=O)c1ccc(-c2ccc(=O)n(Cc3ccc(Cl)cc3)c2)cc1` [2-30]: the melting point came to 162 °C.

Turning to `O=C(O)Cc1ccc(-c2ccc(=O)n(Cc3ccc(Cl)cc3)c2)cc1` [2-31], the melting point is 180 °C.

For the molecule `COC(=O)c1ccc(-c2ccc(=O)n(Cc3ccc(Cl)cc3)c2)cc1` [2-33], the melting point turned out to be 175 °C.

In the case of `COC(=O)CCc1ccc(-c2ccc(=O)n(Cc3ccc(Cl)cc3)c2)cc1` [2-36], the melting point was 105 °C.

Molecule `COc1ccc(-c2ccc(=O)n(Cc3ccc(Cl)cc3)c2)cc1N` [2-37] yielded a melting point of 175 °C.

Turning to `COCCNc1ccc(-c2ccc(=O)n(Cc3ccc(Cl)cc3)c2)cc1` [2-40], the melting point came out at 106 °C.

For the molecule `O=c1ccc(-c2ccc(N3CCOCC3)cc2)cn1Cc1ccc(Cl)cc1` [2-41], the melting point stood at 126 °C.

`CC(=O)NCCOCc1ccc(-c2ccc(=O)n(Cc3ccc(Cl)cc3)c2)cc1` [2-42, N-(2-(4-(1-(4-Chlorobenzyl)-6-oxo-1,6-dihydropyridin-3-yl)benzyloxy)ethyl)acetamide]: the melting point stood at 152 °C.

In the case of `CN(C)C(=O)c1ccc(-c2ccc(=O)n(Cc3ccc(Cl)cc3)c2)cc1` [2-43], the melting point was determined as 176 °C.

Regarding `CNC(=O)Cc1ccc(-c2ccc(=O)n(Cc3ccc(Cl)cc3)c2)cc1` [2-44, 2-(4-(1-(4-Chlorobenzyl)-1,6-dihydro-6-oxopyridin-3-yl)phenyl)-N-methylacetamide], the melting point amounted to 183 °C.

As for `CN(C)C(=O)Cc1ccc(-c2ccc(=O)n(Cc3ccc(Cl)cc3)c2)cc1` [2-45], the melting point came out at 161 °C.

The molecule `CNC(=O)CCc1ccc(-c2ccc(=O)n(Cc3ccc(Cl)cc3)c2)cc1` [2-46] returned a melting point of 197 °C.

The molecule `CN(C)C(=O)CCc1ccc(-c2ccc(=O)n(Cc3ccc(Cl)cc3)c2)cc1` [2-47] registered a melting point of 104 °C.

`CN(C)c1ccc(-c2ccc(=O)n(Cc3ccc(Cl)cc3)c2)cc1` [2-48] came in with a melting point of 155 °C.

On to `O=c1ccc(-c2ccc(Cc3nn[nH]n3)cc2)cn1Cc1ccc(Cl)cc1` [2-51, 5-(4-((2H-Tetrazol-5-yl)methyl)phenyl)-1-(4-chlorobenzyl)pyridin-2(1H)-one], for which the melting point worked out at 231 °C.

On to `CSc1ccc(-c2ccc(=O)n(Cc3ccc(Cl)cc3)c2)cc1` [2-52], for which the melting point was found to be 132 °C.

For the molecule `CCSc1ccc(-c2ccc(=O)n(Cc3ccc(Cl)cc3)c2)cc1` [2-53], the melting point was found to be 109 °C.

On to `CS(=O)(=O)c1ccc(-c2ccc(=O)n(Cc3ccc(Cl)cc3)c2)cc1` [2-54], for which the melting point was 199 to 200 °C.

`COc1ccc(-c2ccc(=O)n(Cc3ccc(Cl)cc3)c2)cc1NS(C)(=O)=O` [2-56, N-(5-(1-(4-Chlorobenzyl)-6-oxo-1,6-dihydropyridin-3-yl)-2-methoxyphenyl)methanesulfonamide] showed a melting point of 151 °C.

`O=c1ccc(-c2cnn(Cc3ccccc3)c2)cn1Cc1ccc(Cl)cc1` [2-58] showed a melting point of 140 to 144 °C.

In turn, `O=c1ccc(-c2ccoc2)cn1Cc1ccc(Cl)cc1` [2-59] showed a melting point of 112 to 114 °C.

`Cc1ccc(-c2ccc(=O)n(Cc3ccc(Cl)cc3)c2)s1` [2-60] returned a melting point of 101 °C.

The molecule `COc1ccc(-c2ccc(=O)n(Cc3ccc(Cl)cc3)c2)cn1` [2-62] had a melting point of 191 °C.

`O=c1ccc(-c2ccc(Cl)nc2)cn1Cc1ccc(Cl)cc1` [2-63] came in with a melting point of 169 °C.

The molecule `CN(C)c1ccc(-c2ccc(=O)n(Cc3ccc(Cl)cc3)c2)cn1` [2-64] displayed a melting point of 164 °C.

`O=c1ccc(-c2ccc(N3CCOCC3)nc2)cn1Cc1ccc(Cl)cc1` [2-65] showed a melting point of 154 °C.

In turn, `COc1ncc(-c2ccc(=O)n(Cc3ccc(Cl)cc3)c2)cn1` [2-66] registered a melting point of 191 °C.

On to `Cn1ccc2cc(-c3ccc(=O)n(Cc4ccc(Cl)cc4)c3)ccc21` [2-68], for which the melting point is 144 to 147 °C.

`O=c1ccc(-c2ccc3c(c2)CCO3)cn1Cc1ccc(Cl)cc1` [2-69]: the melting point was 119 °C.

For `O=c1ccc(-c2cnc3ccccc3c2)cn1Cc1ccc(Cl)cc1` [2-70], the melting point was determined as 165 °C.

In the case of `O=c1ccc(-c2ccc3cccnc3c2)cn1Cc1ccc(Cl)cc1` [2-71], the melting point amounted to 261 °C.

In turn, `O=c1ccc(-c2ccc3nccnc3c2)cn1Cc1ccc(Cl)cc1` [2-72] yielded a melting point of 120 °C.

Molecule `CN(Cc1ccc(=O)n(Cc2ccc(Cl)cc2)c1)c1ccccc1` [3-07, 1-(4-Chlorobenzyl)-5-((methyl(phenyl)amino)methyl)pyridin-1-2(1H)-one] had a melting point of 106 °C.

Take `COc1cccc(C(O)c2ccc(=O)n(Cc3ccc(Cl)cc3)c2)c1` (stereo not shown) [3-10, 1-(4-Chlorobenzyl)-5-(hydroxy(3-methoxyphenyl)methyl)pyridin-2(1H)-one]: the melting point amounted to 120 °C.

Molecule `COc1cccc(C(=O)c2ccc(=O)n(Cc3ccc(Cl)cc3)c2)c1` [3-12, 1-(4-Chlorobenzyl)-5-(3-methoxybenzoyl)pyridin-2(1H)-one] came in with a melting point of 104 °C.
